Results reported in patent US10322132B2, “Prevention or treatment of uratic or gouty diseases” (SHANTON PHARMA CO., LTD., priority 2015, dated 2019).

How the values were obtained:
[1] = test system: IL-1β, IL-6, KC and TNFα; experiment: Air sacculitis (MSU-induced air sacs), cytokines in lavage fluid; conditions: for IL-1β / KC / TNF-α: lavage fluid supernatant, mean, n = 8
Procedure: (§2) The sterile MSU crystals were added to 5 mL of sterilized saline before injected into air sacs.
(§3) Male Wistar rats were raised for one week and then randomly divided into 6 groups. Animals were anesthetized and then injected with 24 mL of sterile air in their backs. The animals received the second injection of air 4 days later. On day 7, the rats in the blank group and model group were intragastrically administered with the solvent at a dose of 10 mL/kg; the rats in the dexamethasone group were administered by intraperitoneal injection with dexamethasone at a dose of 5 mg/kg; the rats in the colchicine group were intragastrically administered with colchicine at a dose of 5 mg/kg. […] One hour after administration, the rats in the blank group were injected with 5 mL of saline into the air sacs at the back, and the rats from other groups were injected with 5 mL of MSU crystal suspension (1 mg/mL) into the air sacs at the back. Four hours later, the lavage fluid in the air sacs was taken, and a portion of the lavage fluid was used for cytological analysis. The remaining was centrifuged at 8000 rpm for 15 min, and the supernatant was stored at −80° C. for the detection of cytokines IL-1β, IL-6, KC and TNFα. The test results were shown as mean±SEM and statistically analyzed by t-test.

[2] = test system: MSU-induced gouty arthritis; experiment: MSU-induced gouty arthritis, toe volume; format: in vivo, Male Wistar rats; conditions: for Inhibition of toe volume change (%) / Toe volume change: 9 h after MSU; for Inhibition of toe volume change (%): vs model group; for effect on increase of the toe volumes in the test rats (in words): compared with the model group
Procedure: The experiment was done by reference to Hsin-Pai Lee, Shi-Ying Huang, Yen-You Lin. Soft Coral-Derived Lemnalol Alleviates Monosodium Urate-Induced Gouty Arthritis in Rats by Inhibiting Leukocyte Infiltration and iNOS, COX-2 and c-Fos Protein Expression. […] 2013, 11, 99-113.
One gram of uric acid was weighed, introduced into 200 mL of boiling water and heated. Then, NaOH (2 mol/L) was added until pH reached 9. The solution became clear, and was cooled at room temperature and then left still overnight. MSU was obtained after filtration, which was dried at 60° C. for 24 h and then sterilized at a high temperature of 180° C.
(§1) The toe volumes of the rats were measured one day prior to the experiment. The rats were administered with the solvent by subcutaneous injection in the model group at a dose of 5 mL/kg, while the rats were administered with test samples by subcutaneous injection in administration groups at a dose of 5 mg/kg. Rats were anesthetized immediately after administration and were injected with 0.09 mL of MSU suspension into the joint cavity of the left ankle. The volume of the left toe was measured in rats 9 h after the injection of MSU into the ankle joint cavity.
as §1, with “dose of 15 mL/kg, while” for “dose of 5 mL/kg, while”, “dose of 15 mg/kg or 10 mg/kg. Rats” for “dose of 5 mg/kg. Rats”
The toe volumes of rats were measured one day prior to the experiment. The rats were administered with the solvent by subcutaneous injection in the model group at a dose of 15 mL/kg, while the rats were administered with the test sample by subcutaneous injection in administration group at a dose of 15 mg/kg. Rats were anesthetized immediately after administration and were injected with 0.09 mL of MSU suspension into the joint cavity of the left ankle. The volume of the left toe in each rat was measured 9 h after the injection of MSU into the ankle joint cavity.

[3] = test system: MSU-induced air sacs; experiment: Air sacculitis (MSU-induced air sacs), leukocyte counts in lavage fluid; conditions: for Leukocyte count: Basophil / Leukocyte count: Eosinocyte / Leukocyte count: Lymphocyte / Leukocyte count: Monocyte / Leukocyte count: Neutrophil / Total cell count: lavage fluid 4 h after MSU, mean ± SEM, n = 8;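 for all read-outs here: male Wistar rats with dorsal air sacs, dosed 1 h before injecting MSU crystal suspension, compared with saline-injected blank and vehicle-treated model groups, cytological analysis of lavage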
Procedure: as §2, §3

[4] = test system: TNF-α; experiment: LPS-induced TNF-α release; format: in vivo, Male BALB/C mice
Procedure: The experiment was conducted by reference to Pascale Gaillard, Isabelle Jeanclaude-Etter, etc. Design and Synthesis of the First Generation of Novel Potent, Selective, and in Vivo Active (Benzothiazol-2-yl)acetonitrile
BALB/C mice were raised in the SPF-grade animal room for 1 week, and were then randomly divided into the corresponding model group and the administration groups according to the body weight. The […] were administered with the solvent or the test samples by subcutaneous injection at a dose of 10 mg/kg. The rats were administered with LPS by intraperitoneal injection at a dose of 15 mg/kg 30 min after the administration of the solvent or the test samples. The mice were anesthetized with sodium pentobarbital (45 mg/kg by intraperitoneal injection) 1 h after LPS administration. The blood was collected by cardiac puncture, and the content of TNF-α (tumor necrosis factor) in plasma was measured with a Mouse TNF-α Elisa Ready-set-go kit.

[5] = Example 5, 15 mg/kg or 10 mg/kg
[6] = Example 5, 15 mg/kg subcutaneous

`CCCCCn1c(=O)[nH]c(=O)c2[nH]c(Cl)nc21` [Compound A, 8-chloro-3-pentyl-3,7-dihydro-1H-purine-2,6-dione] was tested, and the “IL-1β” value ([1]; 30 mg/kg intragastric) was 79.2 pg/mL, the “KC” value ([1]; 30 mg/kg intragastric) was 8742.1 pg/mL and the “TNF-α” value ([1]; 30 mg/kg intragastric) was 29.7 pg/mL. The “IL-1β” value ([1]; 100 mg/kg intragastric) was 88.6 pg/mL, the “KC” value ([1]; 100 mg/kg intragastric) was 5757.4 pg/mL and the “TNF-α” value ([1]; 100 mg/kg intragastric) was 18.7 pg/mL. For the same compound, the “effect on increase of IL-6, KC and TNFα (in words)” value ([1]; oral dose of 100 mg/kg) was “significantly inhibit”, the “Change of toe volume” value ([2]; Example 4, 5 mg/kg subcutaneous, 9 h after MSU injection into left ankle joint cavity) was 0.416 mL and the “Inhibition of toe volume change (%)” value ([2]; Example 4, 5 mg/kg subcutaneous) was 17.5%. The “effect on increase of the toe volumes in the test rats (in words)” value (shortened to “effect on increase of the toe volumes”) ([2]; Example 4, 5 mg/kg) was “significantly inhibit”, the “effect on increase of the toe volumes” value [2, 5] was “significantly inhibit” and the “Toe volume change” value [2, 6] was 0.264 mL. For the same compound, the “Inhibition of toe volume change (%)” value [2, 6] was 34.7%, the “Leukocyte count: Basophil” value ([3]; 30 mg/kg intragastric) was 0 ± 0 *10^4/air sacs and the “Leukocyte count: Eosinocyte” value ([3]; 30 mg/kg intragastric) was 5.8 ± 1.2 *10^4/air sacs. For the same compound, the “Leukocyte count: Lymphocyte” value ([3]; 30 mg/kg intragastric) was 8.1 ± 1.2 *10^4/air sacs, the “Leukocyte count: Monocyte” value ([3]; 30 mg/kg intragastric) was 174.2 ± 35.4 *10^4/air sacs and the “Leukocyte count: Neutrophil” value ([3]; 30 mg/kg intragastric) was 18.6 ± 6.4^$ *10^4/air sacs. For the same compound, the Total cell count ([3]; 30 mg/kg intragastric) was 206.8 ± 42.9^$ *10^4/air sacs, the “Leukocyte count: Basophil” value ([3]; 100 mg/kg intragastric) was 0 ± 0 *10^4/air sacs and the “Leukocyte count: Eosinocyte” value ([3]; 100 mg/kg intragastric) was 4.6 ± 1.4 *10^4/air sacs. The “Leukocyte count: Lymphocyte” value ([3]; 100 mg/kg intragastric) was 8.0 ± 1.9 *10^4/air sacs, the “Leukocyte count: Monocyte” value ([3]; 100 mg/kg intragastric) was 151.4 ± 24.1 *10^4/air sacs and the “Leukocyte count: Neutrophil” value ([3]; 100 mg/kg intragastric) was 12.2 ± 3.4^$ *10^4/air sacs. For the same compound, the Total cell count ([3]; 100 mg/kg intragastric) was 176.2 ± 29.6^$$$ *10^4/air sacs and the “effect on increase of the total cell count and neutrophil count in the lavage fluid caused by MSU (in words)” value ([3]; compound A at the oral doses of 30 mg/kg and 100 mg/kg) was “significantly inhibit”.

In the case of `CCCCCn1c(=O)n(C)c(=O)c2[nH]c(Cl)nc21` [Compound D, 8-chloro-1-methyl-3-pentyl-3,7-dihydro-1H-purine-2,6-dione], the “inhibition (%)” value ([4]; TNF-α in plasma vs model group, 10 mg/kg subcutaneous) is reported as 29.6%, the “effect on content of TNF-α in the plasma of the test mice (in words)” value ([4]; compared with the model group) is reported as “significantly reduce” and the “Content of TNF-α” value ([4]; plasma, 10 mg/kg subcutaneous 30 min before LPS 15 mg/kg i.p., 1 h after LPS) is reported as 1124 pg/mL. For the same compound, the “effect on increase of the toe volumes” value [2, 5] was “significantly inhibit”, the “Toe volume change” value [2, 6] was 0.232 mL and the “Inhibition of toe volume change (%)” value [2, 6] was 42.6%.
